Reference: ChEMBL document CHEMBL5236588 (J Med Chem, 2022)
Residues, ends and D or L forms follow the SMILES beside them.

Tests used:
[1] = Inhibition of FXIIa (unknown origin) using Ac-QRFR-pNA as substrate measured at 30 sec interval by microplate reader assay; set-up: species or system Homo sapiens
[2] = Inhibition of human beta-FIXa using Boc-QGR-MCA as substrate
[3] = Inhibition of human FXa using Z-Pyr-GR-MCA as substrate
[4] = Inhibition of human cationic trypsin using Boc-VPR-MCA as susbtrate
[5] = Stability of compound in human serum at 50 uM incubated for 8 hrs by reversed phase HPLC analysis; format: ADME, cell-free; settings: read-out: Stability
Plasminogen = Plasminogen (Homo sapiens, UniProt P00747); experiment: Inhibition of human plasmin using Ac-RM(O2)YR-pNA as substrate
[6] = Inhibition of human FXIa using Boc-Glu(OBzl)-AR-MCA as substrate
[7] = biological target: T1, Suppressor of tumorigenicity 14 protein (Homo sapiens, UniProt Q9Y5Y6); experiment: Inhibition of recombinant human matriptase using Boc-QAR-MCA as substrate
T1 sequence (Q9Y5Y6 whole entry): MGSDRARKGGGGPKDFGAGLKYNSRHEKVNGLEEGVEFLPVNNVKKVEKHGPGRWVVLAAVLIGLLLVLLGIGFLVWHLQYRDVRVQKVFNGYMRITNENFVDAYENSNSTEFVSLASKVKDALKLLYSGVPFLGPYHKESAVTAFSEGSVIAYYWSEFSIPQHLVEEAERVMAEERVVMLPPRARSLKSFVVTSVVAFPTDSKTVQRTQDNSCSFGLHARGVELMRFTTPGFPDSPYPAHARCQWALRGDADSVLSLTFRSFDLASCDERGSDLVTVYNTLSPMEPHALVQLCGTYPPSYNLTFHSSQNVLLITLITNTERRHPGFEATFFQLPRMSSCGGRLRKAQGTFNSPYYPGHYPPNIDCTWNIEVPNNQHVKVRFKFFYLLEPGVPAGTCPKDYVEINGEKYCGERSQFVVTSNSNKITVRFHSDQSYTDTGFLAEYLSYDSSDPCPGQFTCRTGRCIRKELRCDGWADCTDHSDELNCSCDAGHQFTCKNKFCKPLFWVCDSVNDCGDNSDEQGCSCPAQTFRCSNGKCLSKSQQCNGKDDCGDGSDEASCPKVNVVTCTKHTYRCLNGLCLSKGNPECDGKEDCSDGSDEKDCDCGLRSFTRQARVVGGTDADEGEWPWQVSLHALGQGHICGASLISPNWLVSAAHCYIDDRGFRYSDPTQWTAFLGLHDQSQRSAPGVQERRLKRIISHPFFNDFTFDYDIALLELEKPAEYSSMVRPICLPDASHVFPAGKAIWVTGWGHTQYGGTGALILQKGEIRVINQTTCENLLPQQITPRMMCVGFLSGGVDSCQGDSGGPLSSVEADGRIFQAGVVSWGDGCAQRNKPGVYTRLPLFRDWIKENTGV

Plasma kallikrein = Plasma kallikrein (Homo sapiens, UniProt P03952); experiment: Inhibition of human plasma kallikrein using Z-FR-MCA as substrate; format: cell-free
[8] = Stability of compound in human serum at 50 uM incubated for 24 hrs by reversed phase HPLC analysis; format: ADME, cell-free
[9] = Inhibition of human FXIIa
Homo sapiens = organism: Homo sapiens; experiment: Anticoagulant activity in human plasma assessed as prolongation of activated partial thromboplastin time by measuring concentration required to double aPTT; format: functional

Sequence of Plasma kallikrein (P03952 20-390 limits assumed): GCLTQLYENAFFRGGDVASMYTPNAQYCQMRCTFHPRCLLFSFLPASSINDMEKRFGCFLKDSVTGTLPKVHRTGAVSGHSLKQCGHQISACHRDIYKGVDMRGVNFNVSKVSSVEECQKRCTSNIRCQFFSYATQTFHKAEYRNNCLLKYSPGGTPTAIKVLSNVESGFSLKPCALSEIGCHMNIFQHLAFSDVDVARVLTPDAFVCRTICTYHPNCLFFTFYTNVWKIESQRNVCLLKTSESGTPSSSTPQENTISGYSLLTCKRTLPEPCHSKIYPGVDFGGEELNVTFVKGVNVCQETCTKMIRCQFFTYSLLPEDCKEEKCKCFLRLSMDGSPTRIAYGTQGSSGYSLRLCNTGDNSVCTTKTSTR
Sequence of Plasma kallikrein (P03952 391-638 limits assumed): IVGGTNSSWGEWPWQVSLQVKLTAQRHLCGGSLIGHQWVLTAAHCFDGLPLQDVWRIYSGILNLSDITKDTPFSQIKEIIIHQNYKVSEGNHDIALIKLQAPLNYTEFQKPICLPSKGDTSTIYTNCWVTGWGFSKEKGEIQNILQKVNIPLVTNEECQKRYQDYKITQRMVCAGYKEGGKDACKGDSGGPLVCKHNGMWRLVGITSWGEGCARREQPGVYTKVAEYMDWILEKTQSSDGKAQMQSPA
Sequence of Plasminogen (P00747 97-580 limits assumed): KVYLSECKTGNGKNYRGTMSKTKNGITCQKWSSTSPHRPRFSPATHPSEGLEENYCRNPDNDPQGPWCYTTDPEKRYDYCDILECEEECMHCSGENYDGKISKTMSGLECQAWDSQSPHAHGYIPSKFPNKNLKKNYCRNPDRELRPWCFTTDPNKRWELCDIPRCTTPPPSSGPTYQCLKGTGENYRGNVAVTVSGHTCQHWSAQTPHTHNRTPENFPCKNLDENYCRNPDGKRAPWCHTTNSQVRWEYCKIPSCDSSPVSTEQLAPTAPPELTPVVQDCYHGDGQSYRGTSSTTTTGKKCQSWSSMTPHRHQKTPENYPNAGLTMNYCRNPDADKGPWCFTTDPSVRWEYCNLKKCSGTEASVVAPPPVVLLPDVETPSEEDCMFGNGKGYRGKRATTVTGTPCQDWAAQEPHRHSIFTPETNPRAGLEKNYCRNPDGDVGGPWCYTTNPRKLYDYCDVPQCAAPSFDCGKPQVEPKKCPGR
Sequence of Plasminogen (P00747 581-810 limits assumed): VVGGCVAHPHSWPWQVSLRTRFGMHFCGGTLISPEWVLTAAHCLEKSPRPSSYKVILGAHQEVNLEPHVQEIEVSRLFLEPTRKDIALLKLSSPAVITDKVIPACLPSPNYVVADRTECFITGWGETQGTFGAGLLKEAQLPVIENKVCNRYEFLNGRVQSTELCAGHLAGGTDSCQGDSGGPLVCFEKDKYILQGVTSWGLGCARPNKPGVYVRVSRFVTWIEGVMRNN

Structure (SMILES)	Ki [1]	IC50 [2]	IC50 [3]	IC50 [6]	Ki [7]	IC50 (Plasma kallikrein)	Stability [8]	further results
CC[C@H](C)[C@@H]1NC(=O)[C@@H]2CSSC[C@@H]3NC(=O)[C@H](CCC(N)=O)NC(=O)CNC(=O)CNC(=O)[C@H](CC(=O)O)NC(=O)[C@H](CO)NC(=O)CNC(=O)[C@H](CO)NC(=O)CNC(=O)[C@@H]4CSSC[C@H](NC(=O)[C@H](CC(=O)O)NC(=O)[C@H](CO)NC(=O)[C@H](CC(=O)O)NC(=O)[C@H](CCCNC(=N)N)NC(=O)[C@H](CCCNC(=N)N)NC(=O)[C@H](CSSC[C@H](NC1=O)C(=O)N[C@@H](CCCNC(=N)N)C(=O)NCC(=O)N[C@@H](CC(N)=O)C(=O)NCC(=O)N[C@@H](Cc1ccc(O)cc1)C(=O)N4)NC(=O)[C@H](CCCCN)NC(=O)[C@H](CCCCN)NC(=O)[C@H](CC(C)C)NC(=O)[C@H]([C@@H](C)CC)NC(=O)[C@H](CCCNC(=N)N)NC(=O)[C@H](Cc1ccccc1)NC3=O)C(=O)N1CCC[C@H]1C(=O)NCC(=O)N[C@@H](C)C(=O)N2 (HELM PEPTIDE1{A.C.I.C.R.G.N.G.Y.C.G.S.G.S.D.G.G.Q.C.F.R.I.L.K.K.C.R.R.D.S.D.C.P.G}$PEPTIDE1,PEPTIDE1,2:R3-19:R3|PEPTIDE1,PEPTIDE1,4:R3-26:R3|PEPTIDE1,PEPTIDE1,10:R3-32:R3|PEPTIDE1,PEPTIDE1,1:R1-34:R2$$$V2.0)	0.193 µM						Stable	
CC(C)C[C@@H]1NC(=O)[C@H](CCC(N)=O)NC(=O)[C@H](Cc2c[nH]cn2)NC(=O)[C@@H]2CSCCC(=O)N3CN(CN(C3)C(=O)CCSC[C@H](NC(=O)[C@@H](CO)NC(=O)[C@H](N)CCCNC(=N)N)C(=O)N[C@@H](Cc3ccc(F)cc3)C(=O)N[C@@H](CCCNC(=N)N)C(=O)N[C@@H](CC(C)C)C(=O)N3CCC[C@H]3C(=O)N2)C(=O)CCSC[C@@H](C(=O)O)NC(=O)C[C@H](CCCNC(=N)N)NC1=O								Ki [9]: 0.00037 µM
CC[C@H](C)[C@@H]1NC(=O)[C@H](CCCNC(=N)N)NC(=O)[C@H](Cc2ccccc2)NC(=O)[C@@H](NC(=O)[C@H](CCCNC(=N)N)NC(=O)CNC(=O)CN)CSSC[C@@H]2NC(=O)[C@H](C)NC(=O)CNC(=O)[C@@H]3CCCN3C(=O)[C@@H]3CSSC[C@@H](C(=O)NCC(=O)N[C@@H](CO)C(=O)O)NC(=O)[C@H](Cc4ccc(O)cc4)NC(=O)CNC(=O)[C@H](CC(N)=O)NC(=O)CNC(=O)[C@H](CCCNC(=N)N)NC(=O)[C@H](CSSC[C@H](NC(=O)[C@H](CCCCN)NC(=O)[C@H](CCCCN)NC(=O)CNC1=O)C(=O)N[C@@H](CCCNC(=N)N)C(=O)N[C@@H](CCCNC(=N)N)C(=O)N[C@@H](CC(=O)O)C(=O)N[C@@H](CO)C(=O)N[C@@H](CC(=O)O)C(=O)N3)NC(=O)[C@H]([C@@H](C)CC)NC2=O (HELM PEPTIDE1{G.G.R.C.F.R.I.G.K.K.C.R.R.D.S.D.C.P.G.A.C.I.C.R.G.N.G.Y.C.G.S}$PEPTIDE1,PEPTIDE1,4:R3-21:R3|PEPTIDE1,PEPTIDE1,11:R3-23:R3|PEPTIDE1,PEPTIDE1,17:R3-29:R3$$$V2.0) [listing 2 of 2 here]								Activity (Homo sapiens): 2.5 µM

Now from value to molecule, other results behind:

Ki [1]	IC50 [2]	IC50 [3]	IC50 [6]	Ki [7]	IC50 (Plasma kallikrein)	Stability [8]	Structure (SMILES)	further results
0.002 µM	> 5 µM	> 5 µM	> 5 µM	1.43 µM	> 5 µM	Stable	CC[C@H](C)[C@@H]1NC(=O)[C@H](CCCNC(=N)N)NC(=O)[C@H](Cc2ccccc2)NC(=O)[C@@H](NC(=O)[C@H](CCCNC(=N)N)NC(=O)CNC(=O)CN)CSSC[C@@H]2NC(=O)[C@H](C)NC(=O)CNC(=O)[C@@H]3CCCN3C(=O)[C@@H]3CSSC[C@@H](C(=O)NCC(=O)N[C@@H](CO)C(=O)O)NC(=O)[C@H](Cc4ccc(O)cc4)NC(=O)CNC(=O)[C@H](CC(N)=O)NC(=O)CNC(=O)[C@H](CCCNC(=N)N)NC(=O)[C@H](CSSC[C@H](NC(=O)[C@H](CCCCN)NC(=O)[C@H](CCCCN)NC(=O)CNC1=O)C(=O)N[C@@H](CCCNC(=N)N)C(=O)N[C@@H](CCCNC(=N)N)C(=O)N[C@@H](CC(=O)O)C(=O)N[C@@H](CO)C(=O)N[C@@H](CC(=O)O)C(=O)N3)NC(=O)[C@H]([C@@H](C)CC)NC2=O (HELM PEPTIDE1{G.G.R.C.F.R.I.G.K.K.C.R.R.D.S.D.C.P.G.A.C.I.C.R.G.N.G.Y.C.G.S}$PEPTIDE1,PEPTIDE1,4:R3-21:R3|PEPTIDE1,PEPTIDE1,11:R3-23:R3|PEPTIDE1,PEPTIDE1,17:R3-29:R3$$$V2.0) [listing 1 of 2 here]	IC50 [4]: > 5 µM; remaining at 8 h, 50 µM [5]: 100%; IC50 (Plasminogen): > 5 µM
0.003 µM	> 5 µM	> 5 µM	> 5 µM	0.03 µM	> 5 µM		CC[C@H](C)[C@@H]1NC(=O)[C@@H]2CSSC[C@H](NC(=O)[C@H](CCCNC(=N)N)NC(=O)CNC(=O)CN)C(=O)N[C@@H](Cc3ccccc3)C(=O)N[C@@H](CCCNC(=N)N)C(=O)N[C@@H]([C@@H](C)CC)C(=O)N[C@@H](CC(C)C)C(=O)N[C@@H](CCCCN)C(=O)N[C@@H](CCCCN)C(=O)N[C@H]3CSSC[C@H](NC1=O)C(=O)N[C@@H](CCCNC(=N)N)C(=O)NCC(=O)N[C@@H](CC(N)=O)C(=O)NCC(=O)N[C@@H](Cc1ccc(O)cc1)C(=O)N[C@H](C(=O)NCC(=O)N[C@@H](CO)C(=O)O)CSSC[C@H](NC(=O)[C@H](CC(=O)O)NC(=O)[C@H](CO)NC(=O)[C@H](CC(=O)O)NC(=O)[C@H](CCCNC(=N)N)NC(=O)[C@H](CCCNC(=N)N)NC3=O)C(=O)N1CCC[C@H]1C(=O)NCC(=O)N[C@@H](C)C(=O)N2 (HELM PEPTIDE1{G.G.R.C.F.R.I.L.K.K.C.R.R.D.S.D.C.P.G.A.C.I.C.R.G.N.G.Y.C.G.S}$PEPTIDE1,PEPTIDE1,4:R3-21:R3|PEPTIDE1,PEPTIDE1,11:R3-23:R3|PEPTIDE1,PEPTIDE1,17:R3-29:R3$$$V2.0)	Ki [4]: 0.275 µM; Ki (Plasminogen): 0.086 µM
